{
  "source": "paper PMC12609579",
  "about": "“Acute Myeloid Leukemia: A Key Role of DGKα and DGKζ in Cell Viability” (Cells, 2025)",
  "key": {"[1]": {"system": "HL-60 cells", "test": "alamarBlue cell viability assay, HL-60", "format": "cell-based, human", "procedure": "(§1) The alamarBlue assay was performed to assess cell viability in presence of chemical inhibitors. A total of 50,000 cells per well were seeded in a 96-wells plate in a volume of 100 μL of complete medium together with 10 μL of 10× concentrated inhibitor solution and then incubated for either 24 or 72 h. Each experimental condition was performed in technical quadruplicates, using cells treated with equal amounts of DMSO vehicle as control and medium alone as background. After incubation, alamarBlue was added to each well at a final concentration of 0.15 mg/mL. The fluorescence of the samples was measured 24 h later using a Spark 10 M Multimode Plate Reader (Tecan, Switzerland) with excitation and emission wavelengths of 535 nm and 590 nm, respectively. For dose–response curve fitting, fluorescence values were normalized according to the following formula:Viability (%) = [(sample mean fluorescence)/(DMSO control mean fluorescence)] ∗ 100\n(§2) Data are the results of at least five independent experiments analyzed with GraphPad Prism 10 as [inhibitor] vs. normalized response curve (variable slope, after manual outlier removal)."}, "[2]": {"system": "THP-1 cells", "test": "Proteomic profiling (DIA mass spectrometry) of treated THP-1 cells vs DMSO", "format": "cell-based, human", "procedure": "Cells were lysed in RIPA buffer and sonicated. Proteins were precipitated with cold acetone, pelleted, and resuspended. Reduction was carried out in 25 µL of 100 mM NH4HCO3 with 2.5 µL of 200 mM DTT (Merck, St. Louis, MO, USA) at 60 °C for 45 min, followed by alkylation with 10 µL of 200 mM iodoacetamide (Merck, St. Louis, MO, USA) for 1 h at room temperature in the dark. Excess iodoacetamide was quenched by adding 200 mM DTT. Proteins were then digested with trypsin, dried by SpeedVac, and desalted. Peptides were analyzed on an Ultimate 3000 RSLCnano system coupled to an Orbitrap Exploris 480 equipped with FAIMS (all from Thermo Fisher Scientific). Samples were loaded onto a reversed-phase C18 column (15 cm × 75 µm i.d., Thermo Fisher Scientific) and eluted at 500 nL min^−1 using a 6–95% solvent B gradient over 41 min, followed by 1 min of re-equilibration at 6% B. Data were acquired in positive mode with a spray voltage of 2500 V and FAIMS in standard resolution at a compensation voltage of −45 V. Data-independent acquisition (DIA) was performed with a precursor m/z range of 400–900, using 8 m/z isolation windows with 1 m/z overlap, HCD collision energy of 27%, Orbitrap resolution of 30,000, RF Lens 50%, normalized AGC target 1000, maximum injection time 25 ms, and 1 microscan. DIA data were processed with DIA-NN (v1.8.1) in library-free mode, applying deep-learning prediction for spectra, retention times, and ion mobility. Searches assumed Trypsin/P specificity, precursor charges 1–4, peptide lengths of 7–30 amino acids, and precursor m/z values of 400–900, allowing up to two missed cleavages. Carbamidomethylation of Cys was set as a fixed modification; Met oxidation was set as a variable modification (maximum two per peptide). The false discovery rate was maintained at 1%.\nNormalized data from two independent proteomic experiments were obtained, each comparing a treatment condition to DMSO: (1) ritanserin vs. DMSO and (2) BAY 2965501 vs. DMSO. For each condition, three biological replicates were analyzed.\nProtein abundance differences were calculated separately for each treatment relative to DMSO using a t-test, generating log2 fold change (log2FC) and adjusted p-values (p-adj). All proteins identified by UniProt ID were annotated with the corresponding gene symbol using QIAGEN Ingenuity Pathway Analysis (IPA; QIAGEN Inc., https://digitalinsights.qiagen.com/IPA, accessed on 5 June 2025). Proteins lacking a gene symbol were annotated as NA [42].\nData were filtered to include only proteins with |log2FC| > 2 and p-adj < 0.05, and retaining those annotated with a gene symbol.\nCells treated with equal amounts of DMSO (vehicle) were used as controls."}, "[3]": {"system": "K562 cells", "test": "Annexin V-FITC/7AAD apoptosis/necrosis flow cytometry, K562", "format": "cell-based, human", "settings": "K562, 24 h", "procedure": "(§3) To determine the type of cell death, apoptotic and necrotic cells were detected by flow cytometry using the Apoptosis Detection Kit Annexin V-FITC (Invitrogen, Carlsbad, CA, USA). For each sample, 500,000 cells, pretreated for 24 h, were stained according to manufacturer’s instructions, using 7-aminoactinomycin D (7AAD) instead of propidium iodide. Samples were analyzed on a BD FACS Symphony A5 flow cytometer (Franklin Lakes, NJ, USA) using BD FACSDiva 9.1 software. Data were gated based on FSC-A vs. FSC-H to exclude cell doublets and FSC-A vs. SSC-A to exclude debris. Different populations were identified as: live (Annexin V− and 7AAD−), necrotic (Annexin− and 7AAD+), early apoptotic (Annexin V+ and 7AAD−) and late apoptotic (Annexin+ and 7AAD+). Data are shown as mean ± SD of at least three independent experiments analyzed by GraphPad Prism 10 (control vs. [inhibitor])."}, "[4]": {"system": "THP-1 cells", "test": "Annexin V-FITC/7AAD apoptosis/necrosis flow cytometry, THP-1", "format": "cell-based, human", "settings": "THP-1, 24 h", "procedure": "as §3"}, "[5]": {"system": "THP-1 cells", "test": "IPA canonical pathway analysis of differentially abundant proteins", "format": "cell-based, human", "settings": "THP-1, 24 h; ritanserin 50 µM, BAY 2965501 75 µM", "source_text": "A Venn diagram was created to depict the overlap of differentially abundant proteins shared between the two treatments. These proteins, along with their gene symbols and log2FC values, were then used as input for IPA Core Analysis. The following filters were applied: human species and reference tissues/cells (hematopoietic progenitor cells, macrophages, monocytes, peripheral blood monocytes, and THP1 leukemic cells). The resulting Ingenuity Canonical Pathways were downloaded using standard filters and further refined to consider only those with a |Z-score| > 1. For ritanserin vs. DMSO, the top 15 most significant pathways were represented in a bar plot, while for BAY 2965501 vs. DMSO, only three significant pathways were identified and plotted."}, "[6]": {"system": "HEL cells", "test": "alamarBlue cell viability assay, HEL", "format": "cell-based, human", "procedure": "as §1, §2"}, "[7]": {"target": "serotonin 5-HT2C receptor", "design": "method as in PMID 2860558", "settings": "cited from earlier work"}, "[8]": {"settings": "concentration close to IC50, representative plot"}},
  "data": [
    {"smiles": "Cc1nc2sccn2c(=O)c1CCN1CCC(=C(c2ccc(F)cc2)c2ccc(F)cc2)CC1", "note": "[ritanserin]", "values": [
      {"measurement": "IC50", "setting": "[1]; HL-60, 24 h treatment then alamarBlue 24 h", "value": "~38", "unit": "µM"},
      {"measurement": "IC50", "setting": "[1]; Homo sapiens, HL-60, 24 h, HL-60, 24 h treatment then alamarBlue 24 h", "value": "37.6 ± 1.5", "unit": "µM"},
      {"measurement": "IC50", "setting": "[1]; Homo sapiens, HL-60, HL-60, 72 h treatment then alamarBlue 24 h", "value": "25.3 ± 0.9", "unit": "µM"},
      {"measurement": "number of significantly downregulated proteins", "setting": "[2]; THP-1, 24 h, ritanserin 50 µM, BAY 2965501 75 µM, vs DMSO", "value": "approximately 1200"},
      {"measurement": "number of significantly upregulated proteins", "setting": "[2]; THP-1, 24 h, ritanserin 50 µM, vs DMSO", "value": 14},
      {"measurement": "log2FC A2M (P01023) protein abundance vs DMSO", "setting": "[2]; THP-1, ritanserin 50 µM, 24 h", "value": 4.998},
      {"measurement": "log2FC AAAS (Q9NRG9) protein abundance vs DMSO", "setting": "[2]; THP-1, ritanserin 50 µM, 24 h", "value": 0.1245},
      {"measurement": "log2FC AACS (Q86V21) protein abundance vs DMSO", "setting": "[2]; THP-1, ritanserin 50 µM, 24 h", "value": 1.025},
      {"measurement": "log2FC AAK1 (Q2M2I8) protein abundance vs DMSO", "setting": "[2]; THP-1, ritanserin 50 µM, 24 h", "value": -2.961},
      {"measurement": "log2FC AAMDC (Q9H7C9) protein abundance vs DMSO", "setting": "[2]; THP-1, ritanserin 50 µM, 24 h", "value": -1.488},
      {"measurement": "number of differentially abundant proteins", "setting": "[2]; THP-1, |log2FC| > 2 and p-adj < 0.05, with gene symbol, vs DMSO", "value": 1210},
      {"measurement": "Early apoptotic (Annexin V+ 7AAD-)", "setting": "[3]; [8]", "value": 6.2, "unit": "%"},
      {"measurement": "Late apoptotic (Annexin+ 7AAD+)", "setting": "[3]; [8]", "value": 1.7, "unit": "%"},
      {"measurement": "Live cells (Annexin V- 7AAD-)", "setting": "[3]; [8]", "value": 90.1, "unit": "%"},
      {"measurement": "Necrotic (Annexin- 7AAD+)", "setting": "[3]; [8]", "value": 2.0, "unit": "%"},
      {"measurement": "modality of cell death", "setting": "[3]; concentration near IC50", "value": "early apoptosis"},
      {"measurement": "Early apoptotic (Annexin V+ 7AAD-)", "setting": "[4]; [8]", "value": 14.4, "unit": "%"},
      {"measurement": "Late apoptotic (Annexin+ 7AAD+)", "setting": "[4]; [8]", "value": 2.2, "unit": "%"},
      {"measurement": "Live cells (Annexin V- 7AAD-)", "setting": "[4]; [8]", "value": 83.2, "unit": "%"},
      {"measurement": "Necrotic (Annexin- 7AAD+)", "setting": "[4]; [8]", "value": 0.2, "unit": "%"},
      {"measurement": "modality of cell death", "setting": "[4]; concentration near IC50", "value": "early apoptosis"},
      {"measurement": "number of pathways affected / significantly downmodulated", "setting": "[5]", "value": "more than 500"},
      {"measurement": "IC50", "setting": "[6]; 24 h treatment then alamarBlue 24 h", "value": "~49", "unit": "µM"},
      {"measurement": "IC50", "setting": "[6]; Homo sapiens, 24 h, 24 h treatment then alamarBlue 24 h", "value": "49.2 ± 2", "unit": "µM"},
      {"measurement": "IC50", "setting": "[6]; Homo sapiens, 72 h treatment then alamarBlue 24 h", "value": "29.6 ± 1", "unit": "µM"},
      {"measurement": "Ki", "setting": "[7]", "value": 0.00071, "unit": "µM"}
    ]}
  ]
}
